# Experimental data reported in US20220380370A1 (Goldfinch Bio, Inc., priority 2019, published 2022).
# Biological target: T1, CB1 receptor (Homo sapiens, UniProt P21554)
# T1 construct: Perkin Elmer (CB1-CHO cells); host or cells: Flp-In CHO cells or CB1-CHO cells, stably expressing
# Test: CB1 cAMP antagonist assay (LANCE Ultra cAMP kit)
# Type: cell-based
# Conditions: CHO cells stably expressing the CB1 receptor; forskolin and agonist CP55940 at EC90
# Text: LANCE Ultra cAMP kit (Perkin Elmer) was used to quantitate the amount of 3′,5′-cyclic adenosine monophosphate (cAMP) produced in Flp-In CHO cells (Invitrogen) stably expressing the CB1 receptor, CB1-CHO cells (Perkin Elmer) stably expressing the CB1 receptor, or CB2-CHO cells (Perkin Elmer) stably expressing the CB2 receptor.
# Forskolin was initially titrated to determine the response of the cells. The EC90 of forskolin was used for compound testing. CP55940 was titrated and used with EC90 of forskolin to determine the level of agonist stimulation. EC90 of the agonist was used for subsequent compound testing. For the CB1 assay, Forskolin (Sigma), CP55940 (Cayman Chemicals), and AM251 (MCE) were diluted in 100% DMSO, starting at 100 mM, 1 mM, and 1 mM respectively, in 3-fold serial dilutions. For the CB2 assay, Forskolin (Sigma), CP55940 (Cayman Chemicals), and AM630 (MCE) were diluted in 100% DMSO, starting at 100 mM, 1 mM, and 30 mM respectively, in 3-fold serial dilutions. Test compounds were diluted in 100% DMSO starting from 10 mM, 3-fold dilutions. The cAMP assay buffer contains 1× Hank's Buffered Saline Solution with Ca^2+ and Mg^2+ (Invitrogen), 5.3 mM HEPES (Invitrogen), 0.05% BSA, 0.5 mM IBMX (Sigma). For all assays, cells were harvested, counted, and diluted in cAMP assay buffer to 1×10^5 cells/mL. Only cells with viability >85% were used for the assay. Cells were seeded at 1000 cells/well in 384-well plates and 10 nL/well AM251 (for CB1), AM630 (for CB2) or test compound was added and incubated at 37° C. for 10 min. Then forskolin and agonist were added to reach their EC90 and incubated at 25° C. for 30 min. To detect the amount of cAMP produced, 5 μL of a 100× diluted stock of Eu-cAMP tracer and 5 μL of 200× diluted stock of Ulight-anti-cAMP were added to each well, and the plate incubated at 25° C. for 15 min. The FRET signal was read using an EnVision microplate reader (λex=320 nm, λem=615 nm and 665 nm). The results are expressed as % Inhibition, where % inhibition=100−100×(U−C2)/(C1−C2), where U is the FRET ratio (λem (665 nm)/λem (615 nm)) of sample, C1 is the average of the high controls (signal with no antagonist added), and C2 is the average of low controls (signal with the highest concentration of AM251 or AM630 antagonist). The IC50 is determined by fitting the percentage of inhibition as a function of compound concentrations with the Hill equation, using a 4-parameter fit in either XLfit or GraphPad Prism.
# T1 sequence (P21554 whole entry): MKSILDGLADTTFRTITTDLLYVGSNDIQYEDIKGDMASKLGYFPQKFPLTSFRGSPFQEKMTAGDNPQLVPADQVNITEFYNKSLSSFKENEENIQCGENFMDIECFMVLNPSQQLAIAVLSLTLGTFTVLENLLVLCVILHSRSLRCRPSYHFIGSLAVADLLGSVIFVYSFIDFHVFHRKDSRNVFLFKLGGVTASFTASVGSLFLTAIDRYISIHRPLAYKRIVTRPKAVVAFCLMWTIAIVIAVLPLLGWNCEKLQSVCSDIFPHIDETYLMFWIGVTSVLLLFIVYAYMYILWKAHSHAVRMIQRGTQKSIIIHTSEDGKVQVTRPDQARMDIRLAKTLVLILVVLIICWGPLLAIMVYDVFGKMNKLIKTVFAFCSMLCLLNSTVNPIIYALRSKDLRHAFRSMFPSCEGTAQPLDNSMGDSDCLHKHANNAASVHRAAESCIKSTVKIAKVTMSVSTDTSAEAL
row,IC50 [µM],SMILES
1,< 0.1,"Cn1c(=O)c2c(nc(-c3cccnc3Cl)n2-c2ccc(Cl)cc2)n(C2CCCCC2)c1=O [Compound 152, 7-(4-chlorophenyl)-8-(2-chloropyridin-3-yl)-3-cyclohexyl-1-methylpurine-2,6-dione]"
2,< 0.1,"NC(=O)Cn1c(=O)c2c(nc(-c3ccccc3Cl)n2-c2ccc(Cl)cc2)n(Cc2ccc([C@@H]3COCCO3)cc2)c1=O [Compound 145, 2-[8-(2-chlorophenyl)-7-(4-chlorophenyl)-3-([4-[(2R)-1,4-dioxan-2-yl]phenyl]methyl)-2,6-dioxopurin-1-yl]acetamide]"
3,< 0.1,C[C@H](CO)NC(=O)c1ccc(Cn2c(=O)n(C)c(=O)c3c2nc(-c2ccccc2Cl)n3-c2ccc(Cl)cc2)nc1 [Compound 161]
4,0.1 to 1,"NC(=O)Cn1c(=O)c2c(nc(-c3ccccc3Cl)n2-c2ccc(Cl)cc2)n(Cc2ccc(CC(O)CO)cc2)c1=O (stereo in doubt) [Compound 146, 2-[8-(2-chlorophenyl)-7-(4-chlorophenyl)-3-([4-[(2S)-2,3-dihydroxypropyl]phenyl]methyl)-2,6-dioxopurin-1-yl]acetamide]"
5,< 0.1,CS(=O)(=O)c1ccc(Cn2c(=O)n(CC(N)=O)c(=O)c3c2nc(-c2ccccc2Cl)n3-c2ccc(Cl)cc2)nc1 [Compound 154]
6,< 0.1,Cn1c(=O)c2c(nc(-c3ccccc3Cl)n2-c2ccc(Cl)cc2)n(Cc2ccc(C(=O)NCC(C)(C)O)cn2)c1=O [Compound 166]
7,< 0.1,NC(=O)Cn1c(=O)c2c(nc(-c3ccccc3Cl)n2-c2ccc(Cl)cc2)n(C2CCOCC2)c1=O [Compound 133]
8,0.1 to 1,"NC(=O)Cn1c(=O)c2c(nc(-c3ccccc3Cl)n2-c2ccc(Cl)cc2)n(CC2COCCO2)c1=O (stereo in doubt) [Compound 127, 2-[8-(2-chlorophenyl)-7-(4-chlorophenyl)-3-[(2R)-1,4-dioxan-2-ylmethyl]-2,6-dioxopurin-1-yl]acetamide]"
9,< 0.1,CS(=O)(=O)N1CCC(Cn2c(=O)n(CC(N)=O)c(=O)c3c2nc(-c2ccccc2Cl)n3-c2ccc(Cl)cc2)CC1 [Compound 158]
10,0.1 to 1,"NC(=O)Cn1c(=O)c2c(nc(-c3ccc(F)cc3F)n2-c2ccc(Cl)cc2)n(CC2CCS(=O)(=O)CC2)c1=O [Compound 172, 2-[7-(4-chlorophenyl)-8-(2,4-difluorophenyl)-3-[(1,1-dioxo-1λ^6-thian-4-yl)methyl]-2,6-dioxopurin-1-yl]acetamide]"
11,< 0.1,COC(=O)c1ccc(Cn2c(=O)n(C)c(=O)c3c2nc(-c2ccccc2Cl)n3-c2ccc(Cl)cc2)cc1 [Compound 108]
12,< 0.1,NC(=O)Cn1c(=O)c2c(nc(-c3ccccc3Cl)n2-c2ccc(Cl)cc2)n(CC2(F)CCOCC2)c1=O [Compound 157]
13,< 0.1,Cn1nccc1-c1nc2c(c(=O)n(C)c(=O)n2Cc2ccc(S(N)(=O)=O)cc2)n1-c1ccc(Cl)cc1 [Compound 181]
14,< 0.1,"Cn1c(=O)c2c(nc(-c3ccccc3Cl)n2-c2ccc(Cl)cc2)n(Cc2ccc(Cl)cc2)c1=O [Compound 109, 8-(2-chlorophenyl)-7-(4-chlorophenyl)-3-[(4-chlorophenyl)methyl]-1-methyl-2,3,6,7-tetrahydro-1H-purine-2,6-dione]"
15,< 0.1,"C[C@@H](c1ccc(S(N)(=O)=O)cn1)n1c(=O)n(C)c(=O)c2c1nc(-c1ccccc1Cl)n2-c1ccc(Cl)cc1 [Compound 179, 6-[(1S)-1-[8-(2-chlorophenyl)-7-(4-chlorophenyl)-1-methyl-2,6-dioxopurin-3-yl]ethyl]pyridine-3-sulfonamide]"
16,< 0.1,"NC(=O)Cn1c(=O)c2c(nc(-c3ccccc3Cl)n2-c2ccc(Cl)cc2)n(Cc2ccc([C@H]3COCCO3)cc2)c1=O [Compound 141, 2-[8-(2-chlorophenyl)-7-(4-chlorophenyl)-3-([4-[(2S)-1,4-dioxan-2-yl]phenyl]methyl)-2,6-dioxopurin-1-yl]acetamide]"
17,< 0.1,"NS(=O)(=O)Cn1c(=O)c2c(nc(-c3ccccc3Cl)n2-c2ccc(Cl)cc2)n(Cc2ccc(Cl)cn2)c1=O [Compound 169, [8-(2-chlorophenyl)-7-(4-chlorophenyl)-3-[(5-chloropyridin-2-yl)methyl]-2,6-dioxopurin-1-yl]methanesulfonamide]"
18,≥ 5,"Cn1c(=O)c2c(nc(-c3ccccc3Cl)n2-c2ccc(Cl)cc2)n(CC2CCN(C[C@H](O)CO)CC2)c1=O [Compound 113, 8-(2-chlorophenyl)-7-(4-chlorophenyl)-3-([1-[(2S)-2,3-dihydroxypropyl]piperidin-4-yl]methyl)-1-methyl-2,3,6,7-tetrahydro-1H-purine-2,6-dione]"
19,< 0.1,"Cn1c(=O)c2c(nc(-c3ccccc3Cl)n2-c2ccc(Cl)nc2)n(C2CCCCC2)c1=O [Compound 149, 8-(2-chlorophenyl)-7-(6-chloropyridin-3-yl)-3-cyclohexyl-1-methylpurine-2,6-dione]"
20,< 0.1,C[C@H](Cn1c(=O)c2c(nc(-c3ccccc3Cl)n2-c2ccc(Cl)cc2)n(CC2CCS(=O)(=O)CC2)c1=O)C(N)=O [Compound 175]
21,< 0.1,"CC(C(N)=O)n1c(=O)c2c(nc(-c3ccccc3Cl)n2-c2ccc(Cl)cc2)n(CC2CCOCC2)c1=O (stereo in doubt) [Compound 140, (2S)-2-[8-(2-chlorophenyl)-7-(4-chlorophenyl)-3-(oxan-4-ylmethyl)-2,6-dioxopurin-1-yl]propanamide]"
22,0.1 to 1,"CC(C(N)=O)n1c(=O)c2c(nc(-c3ccccc3Cl)n2-c2ccc(Cl)cc2)n(C2CCOCC2)c1=O (stereo in doubt) [Compound 138, (2R)-2-[8-(2-chlorophenyl)-7-(4-chlorophenyl)-3-(oxan-4-yl)-2,6-dioxopurin-1-yl]propanamide]"
23,< 0.1,Cn1c(=O)c2c(nc(-c3ccccc3Cl)n2-c2ccc(Cl)cc2)n(Cc2ccc(C(=O)NCC3(O)CC3)cn2)c1=O [Compound 162]
24,≥ 5,"CN1CCC(Cn2c(=O)n(C)c(=O)c3c2nc(-c2ccccc2Cl)n3-c2ccc(Cl)cc2)CC1 [Compound 116, 8-(2-chlorophenyl)-7-(4-chlorophenyl)-1-methyl-3-[(1-methylpiperidin-4-yl)methyl]-2,3,6,7-tetrahydro-1H-purine-2,6-dione]"
25,1 to 5,"Cn1c(=O)c2c(nc(-c3ccccc3Cl)n2-c2ccc(Cl)cc2)n(Cc2ccc(C(=O)O)cc2)c1=O [Compound 111, 4-[[8-(2-chlorophenyl)-7-(4-chlorophenyl)-1-methyl-2,6-dioxo-2,3,6,7-tetrahydro-1H-purin-3-yl]methyl]benzoic acid]"
26,< 0.1,"CC(C(N)=O)n1c(=O)c2c(nc(-c3ccccc3Cl)n2-c2ccc(Cl)cc2)n(CC2CCS(=O)(=O)CC2)c1=O (stereo in doubt) [Compound 144, (2R)-2-[8-(2-chlorophenyl)-7-(4-chlorophenyl)-3-[(1,1-dioxo-1 lambda6-thian-4-yl)methyl]-2,6-dioxopurin-1-yl]propanamide]"
27,< 0.1,"CS(=N)(=O)c1ccc(Cn2c(=O)n(CC(N)=O)c(=O)c3c2nc(-c2ccccc2Cl)n3-c2ccc(Cl)cc2)cc1 (stereo not shown) [Compound 156, 2-[8-(2-chlorophenyl)-7-(4-chlorophenyl)-3-([4-[imino(methyl)oxo-lambda6-sulfanyl]phenyl]methyl)-2,6-dioxopurin-1-yl]acetamide]"
28,< 0.1,C[C@@H](C(N)=O)n1c(=O)c2c(nc(-c3ccccc3Cl)n2-c2ccc(Cl)cc2)n(CC2CCOCC2)c1=O [Compound 139]
